Read-outs that look alike come from different tables or passages of the source.
Key:
Assay type in all cases: cell-based, human
[1] = tested on: MF splenic CD34+ cells; assay: In vitro treatment of MF splenic CD34+ cells with Rux and imetelstat alone and in combination (flow cytometry, HPC assays); details: Rux alone 50 nM 3 days
Experimental: Treatment of MF and normal CD34^+ cells with doses of Rux and Imetelstat alone and in combination. […] For simultaneous combination treatment, CD34^+ cells were exposed to Rux and imetelstat for 3 days and were washed. Cells were then exposed to imetelstat again for additional 4 days or 11 days. For sequential combination treatment, CD34^+ cells were incubated in the presence of Rux alone for 3 days, followed by imetelstat alone for 7 or 14 days. For the three treatment strategies containing imetelstat, cells were dosed in total three times with imetelstat. Three days after Rux alone treatment and 7 or 14 days after each treatment with imetelstat, cells were enumerated and stained with CD34, a lineage cocktail, and CD15 mAbs and analyzed flow cytometrically. The absolute numbers of Lin^− CD34^+ (phenotypically defined HSC/HPC) and CD15^+CD34^− (myeloid) cells generated in the cultures were calculated by multiplying the total viable cell numbers by the percentage of CD34^+Lin^− and CD15^+CD34^− cells. […]
HPC assays. A fraction of cells harvested from the above cultures were also analyzed in methylcellulose to which a cytokine cocktail was added according to the manufacturer's instructions (StemCell Technologies). […] Individual CFU-GM colonies (20-38 colonies/treatment group/patient) were plucked and analyzed for the presence of JAK2V617F using a nested allele-specific PCR. […]

[2] = tested on: CB CD34+ cells; assay: In vitro treatment of CB CD34+ cells with various doses of Rux; details: various doses of Rux (50-500 nM)
Experimental: (§1) Treatment of MF and normal CD34^+ cells with doses of Rux and Imetelstat alone and in combination. […] For simultaneous combination treatment, CD34^+ cells were exposed to Rux and imetelstat for 3 days and were washed. Cells were then exposed to imetelstat again for additional 4 days or 11 days. For sequential combination treatment, CD34^+ cells were incubated in the presence of Rux alone for 3 days, followed by imetelstat alone for 7 or 14 days. For the three treatment strategies containing imetelstat, cells were dosed in total three times with imetelstat. Three days after Rux alone treatment and 7 or 14 days after each treatment with imetelstat, cells were enumerated and stained with CD34, a lineage cocktail, and CD15 mAbs and analyzed flow cytometrically. The absolute numbers of Lin^− CD34^+ (phenotypically defined HSC/HPC) and CD15^+CD34^− (myeloid) cells generated in the cultures were calculated by multiplying the total viable cell numbers by the percentage of CD34^+Lin^− and CD15^+CD34^− cells. In addition, parallel cultures to which MM or vehicle alone was added were performed.

[3] = tested on: MF splenic CD34+ cells; assay: In vitro treatment of MF splenic CD34+ cells with various doses of Rux; details: for IC50: Homo sapiens, concentration of Rux achieving 50% inhibition
Experimental: as §1

In the case of N#CC[C@H](C1CCCC1)n1cc(-c2ncnc3[nH]ccc23)cn1 [Rux, (3R)-3-Cyclopentyl-3-[4-(7H-pyrrolo[2,3-d]pyrimidin-4-yl)pyrazol-1-yl]propanenitrile], the “number of mature myeloid cells generated in cultures of splenic MF CD34+ cells” value ([1]; P=0.001) is reported as “reduced”, the “numbers of assayable HPCs (CFU-GM+BFU-E+CFU-GEMM) generated in cultures of splenic MF CD34+ cells” value ([1]; P=9.69E-06) is reported as “reduced” and the “number of CB CD34+ cells” value [2] is reported as “decreased only to a limited degree”. For the same compound, the IC50 ([3]; CD34+ cell, read-out: 50% inhibition of MF CD34+ cell proliferation) was 150 nM, the IC50 ([3]; CFU-GM, MF CD34+ cells, read-out: 50% inhibition of CFU-GM formation) was 150 nM and the “absolute number of MF splenic CD34+ cells” value ([3]; various doses of Rux (50-500 nM)) was “decreased in a dose dependent fashion”.

Reference: patent publication US12391946B2, “Use of a Janus kinase inhibitor and a telomerase inhibitor for the treatment of myeloproliferative neoplasms” (priority 2019, dated 2025)
